Measurements reported in PMC3675820 (Molecular & Cellular Proteomics : MCP, 2013).

Tests used:
Conditions in all cases: 500 μM ATPγS vs none; normal (aerated) culture lysate; competitive
[1] = molecular target: Polyphosphate kinase, Ppk (Mycobacterium tuberculosis, UniProt P9WHV9)
Universal stress protein = Universal stress protein (Mycobacterium tuberculosis, UniProt P9WLB5)
Adenylate kinase, Adk = Adenylate kinase, Adk (Mycobacterium tuberculosis, UniProt P9WKF5)
[2] = molecular target: ATP-dependent protease ATP-binding subunit, ClpC1 (Mycobacterium tuberculosis, UniProt P9WPC9)
[3] = molecular target: Phosphoglycerate kinase, Pgk (Mycobacterium tuberculosis, UniProt P9WID1)
Chain of Phosphoglycerate kinase, Pgk (P9WID1 whole entry): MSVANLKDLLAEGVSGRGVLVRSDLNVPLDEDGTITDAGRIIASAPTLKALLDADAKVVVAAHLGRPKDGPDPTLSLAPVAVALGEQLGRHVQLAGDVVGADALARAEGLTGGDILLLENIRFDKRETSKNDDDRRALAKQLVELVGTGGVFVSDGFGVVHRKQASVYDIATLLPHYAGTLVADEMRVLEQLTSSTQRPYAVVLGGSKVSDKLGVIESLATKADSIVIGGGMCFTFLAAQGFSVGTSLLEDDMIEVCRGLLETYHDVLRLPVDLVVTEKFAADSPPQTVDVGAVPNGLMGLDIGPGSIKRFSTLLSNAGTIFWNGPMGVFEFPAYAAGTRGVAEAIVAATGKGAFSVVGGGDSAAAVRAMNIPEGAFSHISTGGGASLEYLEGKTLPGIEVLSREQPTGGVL

Chain of ATP-dependent protease ATP-binding subunit, ClpC1 (P9WPC9 whole entry): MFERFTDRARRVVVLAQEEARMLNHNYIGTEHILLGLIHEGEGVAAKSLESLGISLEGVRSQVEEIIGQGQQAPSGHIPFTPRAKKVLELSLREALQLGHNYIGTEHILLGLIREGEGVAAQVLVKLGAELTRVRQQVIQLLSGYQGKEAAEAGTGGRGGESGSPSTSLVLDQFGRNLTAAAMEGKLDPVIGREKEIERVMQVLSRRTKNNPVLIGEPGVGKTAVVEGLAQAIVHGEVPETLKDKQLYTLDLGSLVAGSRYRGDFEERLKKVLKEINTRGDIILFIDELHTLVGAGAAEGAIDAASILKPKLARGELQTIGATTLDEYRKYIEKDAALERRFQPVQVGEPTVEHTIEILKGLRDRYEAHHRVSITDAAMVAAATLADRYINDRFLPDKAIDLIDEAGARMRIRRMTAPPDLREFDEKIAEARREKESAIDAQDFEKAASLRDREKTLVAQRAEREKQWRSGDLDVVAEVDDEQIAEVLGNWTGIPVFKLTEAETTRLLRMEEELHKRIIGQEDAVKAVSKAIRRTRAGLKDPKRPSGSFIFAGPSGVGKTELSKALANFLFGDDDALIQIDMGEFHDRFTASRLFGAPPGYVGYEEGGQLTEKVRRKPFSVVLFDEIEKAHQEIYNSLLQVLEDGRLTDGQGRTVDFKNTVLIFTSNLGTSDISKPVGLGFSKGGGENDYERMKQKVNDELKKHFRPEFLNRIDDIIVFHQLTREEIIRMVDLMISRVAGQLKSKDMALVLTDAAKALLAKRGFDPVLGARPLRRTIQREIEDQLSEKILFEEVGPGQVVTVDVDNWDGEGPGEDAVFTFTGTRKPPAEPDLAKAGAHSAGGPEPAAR
Chain of Adenylate kinase, Adk (P9WKF5 whole entry): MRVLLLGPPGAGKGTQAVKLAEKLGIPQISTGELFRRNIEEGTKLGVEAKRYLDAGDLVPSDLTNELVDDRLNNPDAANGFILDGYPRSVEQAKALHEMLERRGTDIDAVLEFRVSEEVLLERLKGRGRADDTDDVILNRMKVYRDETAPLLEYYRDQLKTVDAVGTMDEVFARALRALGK
Chain of Polyphosphate kinase, Ppk (P9WHV9 whole entry): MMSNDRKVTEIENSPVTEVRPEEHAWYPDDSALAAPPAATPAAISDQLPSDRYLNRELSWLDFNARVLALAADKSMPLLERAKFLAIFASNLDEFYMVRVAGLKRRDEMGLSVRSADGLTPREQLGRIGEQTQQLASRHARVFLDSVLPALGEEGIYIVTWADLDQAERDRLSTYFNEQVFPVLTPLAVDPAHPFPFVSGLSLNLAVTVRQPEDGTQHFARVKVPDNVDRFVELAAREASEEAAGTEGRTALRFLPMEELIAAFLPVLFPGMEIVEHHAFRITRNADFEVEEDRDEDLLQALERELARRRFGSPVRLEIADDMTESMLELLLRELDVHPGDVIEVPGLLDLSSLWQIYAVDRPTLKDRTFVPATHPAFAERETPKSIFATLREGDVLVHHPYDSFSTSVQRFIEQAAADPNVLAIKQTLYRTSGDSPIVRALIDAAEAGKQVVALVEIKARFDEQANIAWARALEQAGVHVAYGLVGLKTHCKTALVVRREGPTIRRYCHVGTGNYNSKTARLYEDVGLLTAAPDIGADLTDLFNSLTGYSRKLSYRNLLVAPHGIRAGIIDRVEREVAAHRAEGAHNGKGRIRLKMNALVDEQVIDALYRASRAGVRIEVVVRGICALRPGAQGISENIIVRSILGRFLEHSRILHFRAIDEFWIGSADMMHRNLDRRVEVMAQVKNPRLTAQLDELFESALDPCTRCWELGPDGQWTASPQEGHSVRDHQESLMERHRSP
Chain of Universal stress protein (P9WLB5 whole entry): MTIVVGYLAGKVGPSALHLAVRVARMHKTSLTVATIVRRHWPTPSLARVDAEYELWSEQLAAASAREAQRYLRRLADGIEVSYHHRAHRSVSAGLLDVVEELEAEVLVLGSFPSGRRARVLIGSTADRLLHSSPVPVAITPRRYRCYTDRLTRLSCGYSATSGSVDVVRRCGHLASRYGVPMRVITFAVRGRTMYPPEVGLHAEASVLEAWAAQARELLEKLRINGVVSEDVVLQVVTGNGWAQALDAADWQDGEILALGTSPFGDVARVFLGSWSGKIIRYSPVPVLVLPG

**Q.** Which results are given for `Nc1ncnc2c1ncn2[C@@H]1O[C@H](COP(=O)(O)OP(=O)(O)OP(O)(O)=S)[C@@H](O)[C@H]1O` [ATPγS, adenosine 5′-[γ-thio]triphosphate tetralithium]?
**A.** Fold change [1]: 6.80 fold; Fold change (Universal stress protein): 4.75 fold; Fold change (Adenylate kinase, Adk): 2.12 fold; Fold change [2]: 3.98 fold; Fold change [3]: 6.56 fold
